From paper PMC5218480 (PLoS ONE, 2017)

System: MV-4-11 cells
Assay: Gene expression microarray analysis (Affymetrix PrimeView) and GSEA
Format: cell-based, human
Design: RFU PODN (11730768_x_at) / Fold change /veh PODN (11730768_x_at) / RFU LINC00158 (11744669_a_at) / Fold change /veh LINC00158 (11744669_a_at) / RFU DUSP10 (11751237_a_at) / Fold change /veh DUSP10 (11751237_a_at) / RFU ID3 (11757404_x_at) / Fold change /veh ID3 (11757404_x_at) / RFU PLEKHG5 (11737974_s_at) / Fold change /veh PLEKHG5 (11737974_s_at) / RFU LRRC4B (11730491_at) / Fold change /veh LRRC4B (11730491_at) / RFU GIMAP4 (11747438_a_at) / Fold change /veh GIMAP4 (11747438_a_at) / RFU KRT8 (11758183_x_at) / Fold change /veh KRT8 (11758183_x_at) / RFU CNN1 (11734310_a_at) / Fold change /veh CNN1 (11734310_a_at) / RFU VPS37D (11726825_at) / Fold change /veh VPS37D (11726825_at) / RFU C10orf10 (11716522_x_at) / Fold change /veh C10orf10 (11716522_x_at) / RFU KIR2DL2 /// KIR2DL4 /// KIR2DL5A /// KIR2DL5B /// KIR2DS1 /// KIR2DS2 /// KIR2DS3 /// KIR2DS4 /// KIR3DL3 /// KIR3DL3 /// KIR3DS1 (11738374_at) / Fold change /veh KIR2DL2 /// KIR2DL4 /// KIR2DL5A /// KIR2DL5B /// KIR2DS1 /// KIR2DS2 /// KIR2DS3 /// KIR2DS4 /// KIR3DL3 /// KIR3DL3 /// KIR3DS1 (11738374_at) / RFU C1QL1 (11718748_at) / Fold change /veh C1QL1 (11718748_at) / RFU TMPRSS4 (11747572_a_at) / Fold change /veh TMPRSS4 (11747572_a_at) / RFU HAMP (11756126_x_at) / Fold change /veh HAMP (11756126_x_at) / RFU RNFT2 (11725882_a_at) / Fold change /veh RNFT2 (11725882_a_at) / RFU NR4A2 (11747474_a_at) / Fold change /veh NR4A2 (11747474_a_at) / RFU ABCC12 (11746883_a_at) / Fold change /veh ABCC12 (11746883_a_at) / RFU TMEM136 (11760407_x_at) / Fold change /veh TMEM136 (11760407_x_at) / RFU CLDN22 /// WWC2 (11732394_at) / Fold change /veh CLDN22 /// WWC2 (11732394_at) / RFU HLA-DPB1 (11760878_x_at) / Fold change /veh HLA-DPB1 (11760878_x_at) / RFU SPINT1 (11716480_a_at) / Fold change /veh SPINT1 (11716480_a_at) / RFU GAP43 (11754022_s_at) / Fold change /veh GAP43 (11754022_s_at) / RFU A4GNT (11735810_at) / Fold change /veh A4GNT (11735810_at) / RFU PRB3 (11715151_x_at) / Fold change /veh PRB3 (11715151_x_at) / RFU TUBB4B (11761932_at) / Fold change /veh TUBB4B (11761932_at) / RFU CAPN14 (11732068_a_at) / Fold change /veh CAPN14 (11732068_a_at) / RFU TMCC2 (11721928_a_at) / Fold change /veh TMCC2 (11721928_a_at) / RFU IRGQ (11745062_a_at) / Fold change /veh IRGQ (11745062_a_at) / RFU FAM174B (11720279_a_at) / Fold change /veh FAM174B (11720279_a_at) / RFU TMPRSS4 (11748680_a_at) / Fold change /veh TMPRSS4 (11748680_a_at) / RFU FAM212B (11763350_a_at) / Fold change /veh FAM212B (11763350_a_at) / RFU PLEKHG5 (11743358_a_at) / Fold change /veh PLEKHG5 (11743358_a_at) / RFU ZSCAN30 (11745921_a_at) / Fold change /veh ZSCAN30 (11745921_a_at) / RFU CMKLR1 (11741424_a_at) / Fold change /veh CMKLR1 (11741424_a_at) / RFU LOC101060620 /// MAPK8IP1 (11723275_at) / Fold change /veh LOC101060620 /// MAPK8IP1 (11723275_at) / RFU SPTSSB (11747773_x_at) / Fold change /veh SPTSSB (11747773_x_at) / RFU PRSS12 (11739890_at) / Fold change /veh PRSS12 (11739890_at) / RFU BIN1 (11741810_x_at) / Fold change /veh BIN1 (11741810_x_at) / RFU WNT11 (11732464_a_at) / Fold change /veh WNT11 (11732464_a_at) / RFU C10orf10 (11716521_a_at) / Fold change /veh C10orf10 (11716521_a_at) / RFU C5orf56 (11738089_at) / Fold change /veh C5orf56 (11738089_at) / RFU CYB561 (11721691_x_at) / Fold change /veh CYB561 (11721691_x_at) / RFU ANKRD19P (11752326_a_at) / Fold change /veh ANKRD19P (11752326_a_at) / RFU OR2T12 /// OR2T33 /// OR2T8 (11738714_s_at) / Fold change /veh OR2T12 /// OR2T33 /// OR2T8 (11738714_s_at) / RFU VCAN (11748164_a_at) / Fold change /veh VCAN (11748164_a_at) / RFU JSRP1 (11732532_at) / Fold change /veh JSRP1 (11732532_at) / RFU KRTAP10-11 (11738290_x_at) / Fold change /veh KRTAP10-11 (11738290_x_at) / RFU MYO3A (11730013_a_at) / Fold change /veh MYO3A (11730013_a_at) / RFU EBF3 (11725865_a_at) / Fold change /veh EBF3 (11725865_a_at) / RFU CAMK2N1 (11719241_x_at) / Fold change /veh CAMK2N1 (11719241_x_at) / RFU C5orf56 (11738088_a_at) / Fold change /veh C5orf56 (11738088_a_at) / RFU OLFML3 (11715873_a_at) / Fold change /veh OLFML3 (11715873_a_at) / RFU LOC100653217 /// NTM (11731650_a_at) / Fold change /veh LOC100653217 /// NTM (11731650_a_at) / RFU MAPK11 (11762145_a_at) / Fold change /veh MAPK11 (11762145_a_at) / RFU FIZ1 (11724087_x_at) / Fold change /veh FIZ1 (11724087_x_at) / RFU OASL (11726364_x_at) / Fold change /veh OASL (11726364_x_at) / RFU SOX15 (11748057_x_at) / Fold change /veh SOX15 (11748057_x_at) / RFU CD79A (11719716_a_at) / Fold change /veh CD79A (11719716_a_at) / RFU HIST1H1D (11736915_at) / Fold change /veh HIST1H1D (11736915_at) / RFU CASKIN2 (11723855_a_at) / Fold change /veh CASKIN2 (11723855_a_at) / RFU LOC730098 (11760151_x_at) / Fold change /veh LOC730098 (11760151_x_at) / RFU OR4N2 (11742367_at) / Fold change /veh OR4N2 (11742367_at) / RFU PRRT2 (11749266_a_at) / Fold change /veh PRRT2 (11749266_a_at) / RFU SNX32 (11753110_a_at) / Fold change /veh SNX32 (11753110_a_at) / RFU CDHR5 (11726645_a_at) / Fold change /veh CDHR5 (11726645_a_at) / RFU RCAN1 (11760418_a_at) / Fold change /veh RCAN1 (11760418_a_at) / RFU FAM167A (11723789_a_at) / Fold change /veh FAM167A (11723789_a_at) / RFU FAM26E (11764081_at) / Fold change /veh FAM26E (11764081_at) / RFU ISYNA1 (11749810_s_at) / Fold change /veh ISYNA1 (11749810_s_at) / RFU ACY1 (11761880_at) / Fold change /veh ACY1 (11761880_at) / RFU 11764098_at / Fold change /veh 11764098_at / RFU SAMD14 (11745864_x_at) / Fold change /veh SAMD14 (11745864_x_at) / RFU NPB (11741838_a_at) / Fold change /veh NPB (11741838_a_at) / RFU TMPRSS6 (11731388_a_at) / Fold change /veh TMPRSS6 (11731388_a_at) / RFU KRTAP10-2 (11738614_at) / Fold change /veh KRTAP10-2 (11738614_at) / RFU ARHGAP8 /// PRR5-ARHGAP8 (11727945_x_at) / Fold change /veh ARHGAP8 /// PRR5-ARHGAP8 (11727945_x_at) / RFU KRTAP5-7 /// NADSYN1 (11734609_at) / Fold change /veh KRTAP5-7 /// NADSYN1 (11734609_at) / RFU RASL12 (11751679_a_at) / Fold change /veh RASL12 (11751679_a_at) / RFU CDKN2B (11736163_a_at) / Fold change /veh CDKN2B (11736163_a_at) / RFU PRF1 (11729649_at) / Fold change /veh PRF1 (11729649_at) / RFU, ZNF638 /// ZNF638-IT1 / Fold change vs veh, ZNF638 /// ZNF638-IT1 / RFU, PANK3 / Fold change vs veh, PANK3 / RFU, SH3YL1 / Fold change vs veh, SH3YL1 / RFU, ZEB2 / Fold change vs veh, ZEB2 / RFU, NRIP1 / Fold change vs veh, NRIP1 / RFU, PTTG1IP / Fold change vs veh, PTTG1IP / RFU, CAPN2 / Fold change vs veh, CAPN2 / RFU, MED14 / Fold change vs veh, MED14 / RFU, SNORA58 / Fold change vs veh, SNORA58 / RFU, C1orf63 / Fold change vs veh, C1orf63 / RFU, LRRFIP1 / Fold change vs veh, LRRFIP1 / RFU, NDUFAF7 / Fold change vs veh, NDUFAF7 / RFU, SLC12A2 / Fold change vs veh, SLC12A2 / RFU, IBTK / Fold change vs veh, IBTK / RFU, ESF1 / Fold change vs veh, ESF1 / Fold change vs veh, TMEM50B / RFU, TAOK1 / Fold change vs veh, TAOK1 / RFU, ACBD3 / Fold change vs veh, ACBD3 / RFU, TMA16 / Fold change vs veh, TMA16 / RFU, RWDD3 / Fold change vs veh, RWDD3 / RFU, BCAT1 / Fold change vs veh, BCAT1 / RFU, EDEM3 / Fold change vs veh, EDEM3 / RFU, TMEM33 / Fold change vs veh, TMEM33 / RFU, WDR75 / Fold change vs veh, WDR75 / RFU, AHCTF1 / Fold change vs veh, AHCTF1 / RFU, TFRC / Fold change vs veh, TFRC / RFU, ZDHHC17 / Fold change vs veh, ZDHHC17 / RFU, NOM1 / Fold change vs veh, NOM1 / RFU, ARL8B / Fold change vs veh, ARL8B / RFU, ZBTB11 / Fold change vs veh, ZBTB11 / RFU, TAMM41 / Fold change vs veh, TAMM41 / RFU, KIAA1704 /// LOC100996395 / Fold change vs veh, KIAA1704 /// LOC100996395 / RFU, ING1 / Fold change vs veh, ING1 / RFU, TRMT61B / Fold change vs veh, TRMT61B / RFU, FUBP3 / Fold change vs veh, FUBP3 / RFU, TP53 / Fold change vs veh, TP53 / RFU, TNKS2 / Fold change vs veh, TNKS2 / RFU, ZFP14 / Fold change vs veh, ZFP14 / RFU, ACTR2 / Fold change vs veh, ACTR2 / RFU, PPP3R1 / Fold change vs veh, PPP3R1 / RFU, PIK3R1 / Fold change vs veh, PIK3R1 / RFU, HNRNPA1 / Fold change vs veh, HNRNPA1 / RFU, RNF170 / Fold change vs veh, RNF170 / RFU, ZNF28 / Fold change vs veh, ZNF28 / RFU, RNGTT / Fold change vs veh, RNGTT / RFU, OGT / Fold change vs veh, OGT / RFU, BRD1 / Fold change vs veh, BRD1 / RFU, MARS / Fold change vs veh, MARS / RFU, ZNF655 / Fold change vs veh, ZNF655 / RFU, FAHD1 / Fold change vs veh, FAHD1 / RFU, BDP1 / Fold change vs veh, BDP1 / RFU, LRRCC1 / Fold change vs veh, LRRCC1 / RFU, ARID1A / Fold change vs veh, ARID1A / RFU, ZNF146 / Fold change vs veh, ZNF146 / RFU, ZNF330 / Fold change vs veh, ZNF330 / RFU, GPN3 / Fold change vs veh, GPN3 / RFU, C9orf123 / Fold change vs veh, C9orf123 / RFU, N4BP2L2 / Fold change vs veh, N4BP2L2 / RFU, ARFIP1 / Fold change vs veh, ARFIP1 / RFU, FAM179B / Fold change vs veh, FAM179B / RFU, BCL10 / Fold change vs veh, BCL10 / RFU, UHRF1BP1L / Fold change vs veh, UHRF1BP1L / RFU, BET1 / Fold change vs veh, BET1 / RFU, CNOT2 / Fold change vs veh, CNOT2 / RFU, ZNF268 / Fold change vs veh, ZNF268 / Fold change vs veh, ZNF507 / RFU, DGCR2 / Fold change vs veh, DGCR2 / RFU, WDSUB1 / Fold change vs veh, WDSUB1 / Fold change vs veh, HSP90B1 /// MIR3652 / RFU, ADSS / Fold change vs veh, ADSS / RFU, GK / Fold change vs veh, GK / RFU, ZNF148 / Fold change vs veh, ZNF148 / RFU, TAF9 / Fold change vs veh, TAF9 / RFU, SLC1A5 / Fold change vs veh, SLC1A5 / RFU, SLMO2 / Fold change vs veh, SLMO2 / RFU, ABCC4 / Fold change vs veh, ABCC4 / RFU, LOC101060439 /// RAP1B / Fold change vs veh, LOC101060439 /// RAP1B / RFU, RFX7 / Fold change vs veh, RFX7 / RFU, GTPBP10 / Fold change vs veh, GTPBP10 / RFU, CNEP1R1 / Fold change vs veh, CNEP1R1 / RFU, BIVM-ERCC5 /// ERCC5 / Fold change vs veh, BIVM-ERCC5 /// ERCC5 / RFU, ILF3 / Fold change vs veh, ILF3 / RFU 11762660_at / Fold change /veh 11762660_at / RFU VCAN (11757783_s_at) / Fold change /veh VCAN (11757783_s_at) / RFU DDX43 (11728927_at) / Fold change /veh DDX43 (11728927_at) / RFU KRT8 (11758188_x_at) / Fold change /veh KRT8 (11758188_x_at) / RFU NKD1 (11759106_at) / Fold change /veh NKD1 (11759106_at) / RFU SRD5A1 (11742802_a_at) / Fold change /veh SRD5A1 (11742802_a_at) / RFU TPSAB1 /// TPSB2 (11721975_s_at) / Fold change /veh TPSAB1 /// TPSB2 (11721975_s_at) / RFU GSTM3 (11746129_a_at) / Fold change /veh GSTM3 (11746129_a_at) / RFU IL23R (11737362_x_at) / Fold change /veh IL23R (11737362_x_at) / RFU TMEM51 (11727254_a_at) / Fold change /veh TMEM51 (11727254_a_at) / RFU PIWIL2 (11732686_x_at) / Fold change /veh PIWIL2 (11732686_x_at) / RFU ORM1 (11744905_x_at) / Fold change /veh ORM1 (11744905_x_at) / RFU CCDC152 (11743942_at) / Fold change /veh CCDC152 (11743942_at) / RFU ECM1 (11717891_a_at) / Fold change /veh ECM1 (11717891_a_at) / RFU IL23R (11748794_a_at) / Fold change /veh IL23R (11748794_a_at) / RFU TNFAIP8L3 (11732012_x_at) / Fold change /veh TNFAIP8L3 (11732012_x_at) / RFU MBOAT4 (11741988_at) / Fold change /veh MBOAT4 (11741988_at) / RFU 11764193_at / Fold change /veh 11764193_at / RFU TMEM53 (11763286_at) / Fold change /veh TMEM53 (11763286_at) / RFU MAGEB2 (11727129_at) / Fold change /veh MAGEB2 (11727129_at) / RFU TMEM200A (11744735_a_at) / Fold change /veh TMEM200A (11744735_a_at) / RFU CCDC152 (11751479_a_at) / Fold change /veh CCDC152 (11751479_a_at) / RFU FAM211A (11726209_a_at) / Fold change /veh FAM211A (11726209_a_at) / RFU RGS16 (11746705_a_at) / Fold change /veh RGS16 (11746705_a_at) / RFU VCAN (11755009_s_at) / Fold change /veh VCAN (11755009_s_at) / RFU RHOB (11743442_s_at) / Fold change /veh RHOB (11743442_s_at) / RFU RGS16 (11720943_a_at) / Fold change /veh RGS16 (11720943_a_at) / RFU RGS16 (11720944_at) / Fold change /veh RGS16 (11720944_at) / RFU, VPS4B / Fold change vs veh, VPS4B / RFU, CREB1 / Fold change vs veh, CREB1 / RFU, DNAJC13 / Fold change vs veh, DNAJC13 / RFU, GNAQ / Fold change vs veh, GNAQ / RFU, CDK5R1 / Fold change vs veh, CDK5R1 / RFU, ZRANB3 / Fold change vs veh, ZRANB3 / RFU, CUL4A / Fold change vs veh, CUL4A / RFU, CCNY / Fold change vs veh, CCNY / RFU, UFL1 / Fold change vs veh, UFL1 / RFU, COG3 / Fold change vs veh, COG3 / RFU, DIAPH2 / Fold change vs veh, DIAPH2 / RFU, SKA2 / Fold change vs veh, SKA2 / RFU, AFF3 / Fold change vs veh, AFF3 / RFU, LMF1 / Fold change vs veh, LMF1 / RFU, IPO11 / Fold change vs veh, IPO11 / RFU, DFFB / Fold change vs veh, DFFB / RFU, FOXP1 / Fold change vs veh, FOXP1 / RFU, CARD8 / Fold change vs veh, CARD8 / RFU, STRN3 / Fold change vs veh, STRN3 / RFU, ADK / Fold change vs veh, ADK / RFU, RASSF2 / Fold change vs veh, RASSF2 / RFU, WIPF1 / Fold change vs veh, WIPF1 / RFU, LARP1B / Fold change vs veh, LARP1B / RFU, RASA1 / Fold change vs veh, RASA1 / RFU, RB1 / Fold change vs veh, RB1 / RFU, PPFIA1 / Fold change vs veh, PPFIA1 / RFU, MAT2A / Fold change vs veh, MAT2A / RFU, CCT5 / Fold change vs veh, CCT5 / RFU, WDR92 / Fold change vs veh, WDR92 / RFU, CUX1 / Fold change vs veh, CUX1 / RFU, TTC7A / Fold change vs veh, TTC7A / RFU, TMEM135 / Fold change vs veh, TMEM135 / RFU, DEPTOR / Fold change vs veh, DEPTOR / RFU, CPM / Fold change vs veh, CPM / RFU, DNAJB6 / Fold change vs veh, DNAJB6 / RFU, CACNA2D3 / Fold change vs veh, CACNA2D3 / RFU, DTX4 / Fold change vs veh, DTX4 / RFU, TFCP2 / Fold change vs veh, TFCP2 / RFU, GMCL1 /// GMCL1P1 / Fold change vs veh, GMCL1 /// GMCL1P1 / RFU, AEBP2 / Fold change vs veh, AEBP2 / RFU, SNHG1 /// SNORD22 /// SNORD25 /// SNORD26 /// SNORD27 /// SNORD28 /// SNORD29 /// SNORD31 / Fold change vs veh, SNHG1 /// SNORD22 /// SNORD25 /// SNORD26 /// SNORD27 /// SNORD28 /// SNORD29 /// SNORD31 / Fold change (Aza/veh), C12orf56 (ProbeSet 11735607_a_at) / Fold change (ACY-1035/veh), C12orf56 (ProbeSet 11735607_a_at) / Fold change (Aza/veh), FGFR1OP (ProbeSet 11751329_s_at) / Fold change (ACY-1035/veh), FGFR1OP (ProbeSet 11751329_s_at) / Fold change (Aza/veh), VPS36 (ProbeSet 11739960_a_at) / Fold change (ACY-1035/veh), VPS36 (ProbeSet 11739960_a_at) / RFU SYPL1 (11715823_x_at) / Fold change /veh SYPL1 (11715823_x_at) / RFU IGFBP7 (11715501_s_at) / Fold change /veh IGFBP7 (11715501_s_at) / RFU REEP3 (11722064_at) / Fold change /veh REEP3 (11722064_at) / RFU IGLL1 (11728026_x_at) / Fold change /veh IGLL1 (11728026_x_at): dose or concentration left out as unconfirmed
Conditions: MV-4-11 cells, 48 hours

Nc1ncn([C@@H]2O[C@H](CO)[C@@H](O)[C@H]2O)c(=O)n1 [azacitidine]
RFU DUSP10 (11751237_a_at): 30.26 RFU
